Experimental data from patent US7402399B2, “Receptor tyrosine kinase signaling pathway analysis for diagnosis and therapy” (Monogram BioSciences, Inc., priority 2003, dated 2008).

Assays:
Her1 phosphorylation = test: eTag assay of cell lysates for Her1 receptor phosphorylation; assay type: cell-based, human; settings: BT-20 cells, increasing EGF concentration
Procedure: Sample preparation was carried out essentially as described in Example 2.
Assay design: A monoclonal antibody specific to the receptor is separately conjugated with either a molecular tag or biotin (that is then linked to a photosensitizer via an avidin bridge), so that the cleaving probe and a binding compound compete to bind to the same epitope in this example. Another binding compound is used that consists of a second anibody recognizing an […] epitope on the receptor, so that a ratiometric signal can be generated as a measure of homodimerization. The signal derived from the second antibody also provides a measure of the total amount of receptor in a sample. The total amount of receptor is determined in a separate assay well. Receptor phosphorylation can be quantified together with either homodimerization or total receptor amount.
Procedure: The assay volume is 40 ul and the general procedure is similar to that of Example 2. Two assay wells, A and B, are set up for each sample to quantify homodimerization and total amount of receptor separately. […]

[1] = test system: intracellular phosphorylated tyrosine (Her receptor phosphorylation); test: eTag assay of formalin fixed paraffin embedded cell pellets for receptor phosphorylation; assay type: cell-based, human; settings: 100 nM EGF vs non-stimulated
Procedure: In this example, model fixed tissues made from pelleted cell lines were assayed for the presence of Her receptor dimers. The assay design for heterodimers was essentially the same as that described in FIG. 4A, with exceptions as noted below. That is, four components are employed: (i) a cleaving probe comprising a biotinylated monoclonal antibody conjugated to a cleavage-inducing moiety (in this example, a photosensitizer-derivatized streptavidin, as illustrated in FIG. 3E) and specific for one of the receptors of the dimer, (ii) a monoclonal antibody derivatized with a first molecular tag and specific for the same receptor as the cleaving probe, (iii) a monoclonal antibody derivatized with a second molecular tag and specific for the receptor opposite to that the cleaving probe is specific for, and (iv) a monoclonal antibody derivatized with a third molecular tag and specific for an intracellular phosphorylated tyrosine. The assay design for homodimers was essentially the same as that described in FIG. 1D, with exceptions as noted below.
In each case, model fixed tissues were prepared as follows: cells grown on tissue culture plates were stimulated with either EGF or HRG as described in the prior examples, after which they were washed and removed by scrapping. […]

Her2-Her3 heterodimers = molecular target: T1, Her2-Her3 heterodimers (Homo sapiens, UniProt P04626+P21860); test: eTag assay of cell lysates for Her2-Her3 heterodimers after ligand stimulation; assay type: cell-based; settings: MCF-7 cells, increasing ligand concentrations (0-100 nM), 10 minutes at 37° C.
T1 construct: endogenous in cells; host or cells: MCF-7
Procedure: Measurements are made using three binding compounds and a cleaving probe as described below.
• 1. Serum-starve breast cancer cell line culture overnight before use. • 2. […] Aspirate culture media, transfer onto ice, and add lysis buffer to lyse cells in situ. • 4. Scrape and transfer lysate to microfuge tube. Incubate on ice for 30 min. Microfuge at 14,000 rpm, 4° C., for 10 min. (Centrifugation is optional.) • 5. Collect supernatants as lysates and aliquot for storage at −80° C. until use. Assay: Assay design: As illustrated diagrammatically in FIG. 4A, Her2-Her3 heterodimers (900) are quantified ratiometrically based on the binding of cleaving probe (902) and binding compounds (904), (906), and (908). A photosensitizer indicated by “PS” is attached to cleaving probe (902) via an avidin-biotin linkage, and binding compounds (904), (906), and (908) are labeled with molecular tags Pro4, Pro10, and Pro 11, respectively. Binding compound (904) is specific for a phosphorylation site on Her3. The total assay volume is 40 ul. The lysate volume is adjusted to 30 ul with lysis buffer. […]
Data Analysis: • 3. Normalize relative fluorescence units (RFU) signal of each molecular tag against CE reference standard A315 (a fluorescein-derivatized deoxyadenosine monophosphate that has known peak position relative to molecular tags from the assay upon electrophoretic separation). • 4. […]

For “EGF: epidermal growth factor, ligand used to stimulate cell lines”, which “quantity of Her1 phosphorylation” value (Her1 phosphorylation) is on record?
Its value is “increases”.

What about the Her receptor phosphorylation ([1]; fixed pellets of 22Rv1 cells) of the same substance?
The Her receptor phosphorylation was “up-regulation”.

And the intracellular phosphorylation ([1]; fixed pellets of MDA-MB468 cells)?
The intracellular phosphorylation was “increases”.

What about the “quantity of Her2-Her3 heterodimers” value (Her2-Her3 heterodimers) of the same substance?
The value was “essentially no change”.
